Results taken from ChEMBL document CHEMBL4219036, “Design and multi-step synthesis of chalcone-polyamine conjugates as potent antiproliferative agents” (Bioorg Med Chem Lett, 2017).

Assays:
[1] = 1-octanol/water partition coefficient, log P of the compound at 300 uM by UV-Vis spectrophotometric analysis; assay type: physicochemical
HCT-116 = test: Antiproliferative activity against human HCT116 cells after 48 hrs by MTT assay; assay type: functional, cell-based; settings: HCT-116, 48 h
DU-145 = test: Antiproliferative activity against human DU145 cells after 48 hrs by MTT assay; assay type: functional, cell-based; settings: DU-145, 48 h
PC-3 = test: Antiproliferative activity against human PC3 cells after 48 hrs by MTT assay; assay type: functional, cell-based; settings: PC-3, 48 h
HT-29 = test: Antiproliferative activity against human HT-29 cells after 48 hrs by MTT assay; assay type: functional, cell-based; settings: HT-29, 48 h

SMILES	logP at 300 µM [1]	IC50 (HCT-116) [µM]	IC50 (DU-145) [µM]	IC50 (PC-3) [µM]	IC50 (HT-29) [µM]
COc1ccc(/C=C/C(=O)c2cc(OC)c(OC)c(OC)c2)cc1OCCCC(=O)NCCCCNCCCN	-1.28	38	99.3	51	> 100
COc1cc(C(=O)/C=C/c2ccc(OCCCC(=O)NCCCNCCCCN)cc2)cc(OC)c1OC	-1.43	> 100	> 100	> 100	> 100
COc1ccc(/C=C/C(=O)c2cc(OC)c(OC)c(OC)c2)cc1OCCCC(=O)NCCCCN(CCCN)CCCCN	–	73.6	82.3	60.6	74.7
COc1cc(C(=O)/C=C/c2ccc(OCCCC(=O)NCCCCNCCCN)cc2)cc(OC)c1OC	–	20	54.8	79.3	> 100
COc1ccc(/C=C/C(=O)c2cc(OC)c(OC)c(OC)c2)cc1OCCCC(=O)NCCCCN(CCCN)CCCCNCCCN	–	29.5	84.9	48.1	89.1
COc1cc(C(=O)/C=C/c2ccc(OCCCC(=O)NCCCCN(CCCN)CCCCN)cc2)cc(OC)c1OC	–	29.2	86.8	55.4	87.2
COc1ccc(/C=C/C(=O)c2cc(OC)c(OC)c(OC)c2)cc1OCCCC(=O)NCCCNCCCCN	–	> 100	> 100	81	> 100
COc1cc(C(=O)/C=C/c2ccc(OCCCC(=O)NCCCNCCCCNCCN)cc2)cc(OC)c1OC	-1.98	33.8	35.4	34	98
COc1ccc(/C=C/C(=O)c2cc(OC)c(OC)c(OC)c2)cc1OCCCC(=O)NCCCNCCCCNCCN	-1.57	55.8	28.5	31.8	> 100
COc1ccc(/C=C/C(=O)c2cc(OC)c(OC)c(OC)c2)cc1	3.1	10.7	13.8	7.8	7.4
COc1ccc(/C=C/C(=O)c2cc(OC)c(OC)c(OC)c2)cc1O	2.99	0.85	6.3	0.09	23.1
COc1cc(C(=O)/C=C/c2ccc(OCCCC(=O)NCCCCN(CCCN)CCCCNCCCN)cc2)cc(OC)c1OC	–	75.4	92.5	81.6	91.7
